Tests used:
[1] = system: Gram-positive bacteria such as Micrococcus luteus, Corynebacterium aquaticum, Corynebacteriumflavescens, Corynebacterium callunae, and Corynebacterium nephredi; details: cited from earlier work
[2] = system: Pseudomonas aeruginosa, Staphylococcus aureus, Serratia marcescens, Candida albicans and Fusarium solani; details: biocidal data from Examples 1, 2 and 3
Description: (§1) The ophthalmic compositions are evaluated in accordance with specific procedures outlined by the US Food & Drug Administration and the International Organization for Standardization for the testing of microbiocidal efficacy.

[3] = system: Fusarium solani (ATCC 36031); assay: Preservative/disinfectant system efficacy testing (log reduction); format: cell-based
Description: as §1

CCCCC(CC)COCC(O)CO (stereo not shown) [EHOPD, 3-[(2-ethylhexyl)oxy]-1,2-propanediol]
antimicrobial activity (known, in words) [1]: exhibit antimicrobial activity against a variety of Gram-positive bacteria | biocidal activity (in words) [2]: significant activity against all of the microorganisms in the study | log reduction F. solani ([3]; 1 hr, Table 5A multi-purpose lens care solution, 10% organic soil, disinfectant concentrations as in label): 3.1 | log reduction F. solani ([3]; 1 hr, phosphate buffered saline, 10% organic soil, concentrations as in label (Table 4)): 2.5 | log reduction F. solani ([3]; 4 hr, Table 5A multi-purpose lens care solution, 10% organic soil, disinfectant concentrations as in label): 5.0 | log reduction F. solani ([3]; 4 hr, phosphate buffered saline, 10% organic soil, concentrations as in label (Table 4)): 5.0 | log reduction F. solani ([3]; EHOPD 0.0001 wt %, 1 hr, borate buffered saline, 10% organic soil): 1.3 | log reduction F. solani ([3]; EHOPD 0.0001 wt %, 1 hr, phosphate buffered saline, 10% Organic Soil): 2.3 | log reduction F. solani ([3]; EHOPD 0.0001 wt %, 4 hr, borate buffered saline, 10% organic soil): 2.1 | log reduction F. solani ([3]; EHOPD 0.0001 wt %, 4 hr, phosphate buffered saline, 10% Organic Soil): 2.3 | log reduction F. solani ([3]; EHOPD 0.001 wt %, 1 hr, borate buffered saline, 10% organic soil): 1.9 | log reduction F. solani ([3]; EHOPD 0.001 wt %, 1 hr, phosphate buffered saline, 10% Organic Soil): 1.8 | log reduction F. solani ([3]; EHOPD 0.001 wt %, 4 hr, borate buffered saline, 10% organic soil): 1.9 | log reduction F. solani ([3]; EHOPD 0.001 wt %, 4 hr, phosphate buffered saline, 10% Organic Soil): 2.9 | log reduction F. solani ([3]; EHOPD 0.01 wt %, 1 hr, Table 3A multi-purpose lens care formulation, 10% organic soil): 0.3 | log reduction F. solani ([3]; EHOPD 0.01 wt %, 1 hr, borate buffered saline, 10% organic soil): 2.4 | log reduction F. solani ([3]; EHOPD 0.01 wt %, 1 hr, phosphate buffered saline, 10% Organic Soil): 3.6 | log reduction F. solani ([3]; EHOPD 0.01 wt %, 4 hr, Table 3A multi-purpose lens care formulation, 10% organic soil): 0.5 | log reduction F. solani ([3]; EHOPD 0.01 wt %, 4 hr, borate buffered saline, 10% organic soil): >5.8 | log reduction F. solani ([3]; EHOPD 0.01 wt %, 4 hr, phosphate buffered saline, 10% Organic Soil): >5.8 | log reduction F. solani ([3]; EHOPD 0.1 wt %, 1 hr, Table 3A multi-purpose lens care formulation, 10% organic soil): 0.3 | log reduction F. solani ([3]; EHOPD 0.1 wt %, 1 hr, borate buffered saline, 10% organic soil): >5.8 | log reduction F. solani ([3]; EHOPD 0.1 wt %, 1 hr, phosphate buffered saline, 10% Organic Soil): >5.8 | log reduction F. solani ([3]; EHOPD 0.1 wt %, 4 hr, Table 3A multi-purpose lens care formulation, 10% organic soil): 0.5 | log reduction F. solani ([3]; EHOPD 0.1 wt %, 4 hr, borate buffered saline, 10% organic soil): >5.8 | log reduction F. solani ([3]; EHOPD 0.1 wt %, 4 hr, phosphate buffered saline, 10% Organic Soil): >5.8 | log reduction F. solani ([3]; EHOPD 0.15 wt %, 1 hr, Table 3A multi-purpose lens care formulation, 10% organic soil): 0.5 | log reduction F. solani ([3]; EHOPD 0.15 wt %, 4 hr, Table 3A multi-purpose lens care formulation, 10% organic soil): >4.7 | log reduction F. solani ([3]; EHOPD 0.25 wt %, 1 hr, Table 3A multi-purpose lens care formulation, 10% organic soil): 0.8 | log reduction F. solani ([3]; EHOPD 0.25 wt %, 4 hr, Table 3A multi-purpose lens care formulation, 10% organic soil): >4.7 | log reduction F. solani ([3]; EHOPD 0.50 wt %, 1 hr, Table 3A multi-purpose lens care formulation, 10% organic soil): >4.7 | log reduction F. solani ([3]; EHOPD 0.5 wt %, 1 hr, borate buffered saline, 10% organic soil): >5.8 | log reduction F. solani ([3]; EHOPD 0.5 wt %, 1 hr, phosphate buffered saline, 10% Organic Soil): >5.8 | log reduction F. solani ([3]; EHOPD 0.50 wt %, 4 hr, Table 3A multi-purpose lens care formulation, 10% organic soil): >4.7 | log reduction F. solani ([3]; EHOPD 0.5 wt %, 4 hr, borate buffered saline, 10% organic soil): >5.8 | log reduction F. solani ([3]; EHOPD 0.5 wt %, 4 hr, phosphate buffered saline, 10% Organic Soil): >5.8 | log reduction F. solani ([3]; EHOPD 0.75 wt %, 1 hr, Table 3A multi-purpose lens care formulation, 10% organic soil): >4.7 | log reduction F. solani ([3]; EHOPD 0.75 wt %, 4 hr, Table 3A multi-purpose lens care formulation, 10% organic soil): >4.7 | log reduction F. solani ([3]; EHOPD 1.0 wt %, 1 hr, Table 3A multi-purpose lens care formulation, 10% organic soil): >4.7 | log reduction F. solani ([3]; EHOPD 1.0 wt %, 4 hr, Table 3A multi-purpose lens care formulation, 10% organic soil): >4.7
